Reference: patent publication US12655116B2, “Substituted isophthalic acid diamides” (Bayer Aktiengesellschaft, priority 2020, dated 2026)

Columns and labels:
ABUTH [1] = test: Post-emergence herbicidal action against ABUTH; format: in vivo, Abutilon theophrasti; details: visual assessment about 3 weeks after treatment vs untreated controls
Method in brief: (§1)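 Herbicidal action is a visual percentage rating (0% = as untreated control, 100% = plants dead) made roughly 3 weeks after treatment. Plants were grown in sandy loam in the greenhouse and treated at the one-leaf stage, 2 to 3 weeks post-sowing. Treatment was a foliar spray of wettable-powder or emulsion-concentrate formulations at 600 to 800 l/ha water plus 0.2% wetting agent.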

DIGSA [2] = test: Pre-emergence herbicidal action against DIGSA; format: in vivo, Digitaria sanguinalis
Method in brief: (§2)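 Sandy loam pots, seeds covered with soil, then surface-treated with WP or EC formulations at 600–800 l/ha water plus 0.2% wetting agent. Greenhouse, 3 weeks. Percent damage vs untreated controls.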

STEME [3] = test: Post-emergence herbicidal action against STEME; format: in vivo, Stellaria media
Method: Seeds of monocotyledonous and dicotyledonous weed and crop plants are laid out in sandy loam soil in wood-fiber pots, covered with soil and cultivated in a greenhouse under good growth conditions. 2 to 3 weeks after sowing, the test plants are treated at the one-leaf stage. The compounds of the invention, formulated in the form of wettable powders (WP) or as emulsion concentrates (EC), are then sprayed onto the green parts of the plants in the form of an aqueous suspension or emulsion at a water application rate equivalent to 600 to 800 l/ha, with addition of 0.2% wetting agent. After the test plants have been left to stand in the greenhouse under optimal growth conditions for about 3 weeks, the action of the preparations is assessed visually in comparison to untreated controls (herbicidal action in percent (%): 100% activity=the plants have died, 0% activity=like control plants). […] The tables below illustrate, in an illustrative manner, the post-emergence herbicidal action of the compounds of the invention, the herbicidal activity being stated in percent.

AVEFA [4] = test: Post-emergence herbicidal action against AVEFA; format: in vivo, Avena fatua; details: 20 g/ha, visual assessment about 3 weeks after treatment, 100% = plants have died, 0% = like control plants
Method in brief: as §1

AMARE [5] = test: Pre-emergence herbicidal action against AMARE; format: in vivo, Amaranthus retroflexus
Method in brief: as §2

DIGSA [6] = test: Post-emergence herbicidal action against DIGSA; format: in vivo, Digitaria sanguinalis; details: for Post-emergence action against DIGSA: 20 g/ha; for Post-emergence action against DIGSA in %: 5 g/ha
Method in brief: as §1

PHBPU [7] = test: Pre-emergence herbicidal action against PHBPU; format: in vivo, Pharbitis purpurea; details: dosage 80 g/ha
Method in brief: as §2

VIOTR [8] = test: Post-emergence herbicidal action against VIOTR; format: in vivo, Viola tricolor
Method in brief: as §1

PHBPU [9] = test: Post-emergence herbicidal action against PHBPU; format: in vivo, Pharbitis purpurea
Method in brief: as §1

AVEFA [10] = test: Pre-emergence herbicidal action against AVEFA; format: in vivo, Avena fatua; details: 80 g/ha, pre-emergence
Method in brief: as §2

VERPE = test: Pre-emergence herbicidal action against VERPE; format: in vivo, Veronica persica; details: dosage 80 g/ha
Method in brief: as §2

VIOTR [11] = test: Pre-emergence herbicidal action against VIOTR; format: in vivo, Viola tricolor
Method in brief: as §2

MATIN [12] = test: Post-emergence herbicidal action against MATIN; format: in vivo, Matricaria inodora
Method in brief: as §1

STEME [13] = test: Pre-emergence herbicidal action against STEME; format: in vivo, Stellaria media
Description: Seeds of monocotyledonous and dicotyledonous weed plants and crop plants are laid out in sandy loam soil in wood-fiber pots and covered with soil. The compounds of the invention, formulated in the form of wettable powders (WP) or as emulsion concentrates (EC), are then applied to the surface of the covering soil in the form of an aqueous suspension or emulsion at a water application rate equivalent to 600 to 800 l/ha, with addition of 0.2% wetting agent. After the treatment, the pots are placed in a greenhouse and kept under good growth conditions for the trial plants. The damage to the test plants is scored visually after a test period of 3 weeks by comparison with untreated controls (herbicidal activity in percent (%): 100% activity=the plants have died, 0% activity=like control plants). […] The tables below illustrate, in an illustrative manner, the post-emergence herbicidal action of the compounds of the invention, the herbicidal activity being stated in percent.

ALOMY [14] = test: Pre-emergence herbicidal action against ALOMY; format: in vivo, Alopecurus myosuroides; details: 80 g/ha, pre-emergence, scored visually after 3 weeks vs untreated controls (100% = plants have died, 0% = like control plants)
Method in brief: as §2

SETVI [15] = test: Post-emergence herbicidal action against SETVI; format: in vivo, Setaria viridis
Method in brief: as §1

MATIN [16] = test: Pre-emergence herbicidal action against MATIN; format: in vivo, Matricaria inodora
Method in brief: as §2

ABUTH [17] = test: Pre-emergence herbicidal action against ABUTH; format: in vivo, Abutilon theophrasti; details: for Pre-emergence action against ABUTH (herbicidal activity): 80 g/ha, scored visually after 3 weeks vs untreated controls (100% = plants have died, 0% = like control plants); for Pre-emergence action against ABUTH (herbicidal activity in percent): dosage 20 g/ha, scored visually after 3 weeks vs untreated controls, 100% = plants have died, 0% = like control plants
Method in brief: as §2

ECHCG [18] = test: Post-emergence herbicidal action against ECHCG; format: in vivo, Echinochloa crus-galli
Method in brief: as §1

ALOMY [19] = test: Post-emergence herbicidal action against ALOMY; format: in vivo, Alopecurus myosuroides; details: dosage 20 g/ha, visual assessment about 3 weeks after treatment vs untreated controls
Method in brief: as §1

AMARE [20] = test: Post-emergence herbicidal action against AMARE; format: in vivo, Amaranthus retroflexus; details: 20 g/ha, visual assessment about 3 weeks after treatment, 100% = plants have died, 0% = like control plants
Method in brief: as §1

ECHCG [21] = test: Pre-emergence herbicidal action against ECHCG; format: in vivo, Echinochloa crus-galli; details: 80 g/ha
Method in brief: as §2

SETVI [22] = test: Pre-emergence herbicidal action against SETVI; format: in vivo, Setaria viridis; details: dosage 80 g/ha
Method in brief: as §2

POLCO = test: Pre-emergence herbicidal action against POLCO; format: in vivo, Polygonum convolvulus; details: dosage 80 g/ha
Method in brief: as §2

[23] = 20 g/ha, scored visually after 3 weeks vs untreated controls, 100% = plants have died, 0% = like control plants
[24] = 80 g/ha, scored visually after 3 weeks vs untreated controls (100% = plants have died, 0% = like control plants)

SMILES | Post-emergence action against ABUTH in % (ABUTH [1]; dosage 20 g/ha) [%] | Pre-emergence action against DIGSA in % (DIGSA [2]; dosage 80 g/ha) [%] | Post-emergence action against STEME in % (STEME [3]; 20 g/ha) [%] | Pre-emergence action against AMARE in % (AMARE [5]; [23]) [%] | Pre-emergence action against AMARE in % (AMARE [5]; [24]) [%] | Post-emergence action against DIGSA (DIGSA [6]) [%] | Post-emergence action against VIOTR in % (VIOTR [8]; 20 g/ha) [%] | Pre-emergence action against VIOTR in % (VIOTR [11]; dosage 20 g/ha) [%] | Pre-emergence action against VIOTR in % (VIOTR [11]; dosage 80 g/ha) [%] | Post-emergence action against MATIN in % (MATIN [12]; dosage 20 g/ha) [%] | Pre-emergence action against STEME in % (STEME [13]; dosage 20 g/ha) [%] | Pre-emergence action against STEME in % (STEME [13]; dosage 80 g/ha) [%] | Post-emergence action against SETVI in % (SETVI [15]; dosage 20 g/ha) [%] | Pre-emergence action against MATIN in % (MATIN [16]; dosage 20 g/ha) [%] | Pre-emergence action against MATIN in % (MATIN [16]; dosage 80 g/ha) [%] | Pre-emergence action against ABUTH (herbicidal activity) (ABUTH [17]) [%] | Pre-emergence action against ABUTH (herbicidal activity in percent) (ABUTH [17]) [%] | Post-emergence action against ABUTH in % (ABUTH [1]; dosage 5 g/ha) [%] | Pre-emergence action against DIGSA in % (DIGSA [2]; dosage 20 g/ha) [%] | Post-emergence action against DIGSA in % (DIGSA [6]) [%] | also measured
CCCn1nnnc1NC(=O)c1ccc(C(F)(F)F)c(C(=O)NC2CC2)c1C [Example 3-27] | 100 | 100 | 80 | 100 | 100 | 100 | 100 | 90 | 100 | 100 | 100 | 100 | 90 | 100 | 100 | 100 | 100 | – | – | – | Post-emergence action at 20 g/ha against AVEFA in % (AVEFA [4]): 90%; Pre-emergence action against PHBPU in % (PHBPU [7]): 90%; Post-emergence action against VIOTR in % (VIOTR [8]; 5 g/ha): 80%; Post-emergence action against PHBPU in % (PHBPU [9]; dosage 5 g/ha): 90%; Post-emergence action against PHBPU in % (PHBPU [9]; dosage 20 g/ha): 100%; Pre-emergence action against AVEFA in % (AVEFA [10]): 90%; Pre-emergence action against VERPE in % (VERPE): 90%; Post-emergence action against MATIN in % (MATIN [12]; dosage 5 g/ha): 90%; Pre-emergence action against ALOMY (herbicidal activity) (ALOMY [14]): 90%
CCNC(=O)c1c(C(F)F)ccc(C(=O)Nc2nnco2)c1SC [Example 5-75] | 90 | 100 | 100 | 100 | 100 | 90 | 80 | 100 | 100 | 80 | 100 | 100 | 80 | 80 | 100 | 100 | 100 | 90 | 100 | 90 | Post-emergence action against STEME in % (STEME [3]; dosage 5 g/ha): 90%; Post-emergence action against ECHCG in % (ECHCG [18]; dosage 5 g/ha): 80%; Post-emergence action against ECHCG in % (ECHCG [18]; dosage 20 g/ha): 80%; Post-emergence action at 20 g/ha against AVEFA in % (AVEFA [4]): 80%; Post-emergence action against ALOMY in % (ALOMY [19]): 80%; Post-emergence action against PHBPU in % (PHBPU [9]; dosage 5 g/ha): 80%; Post-emergence action against PHBPU in % (PHBPU [9]; dosage 20 g/ha): 80%; Pre-emergence action against VERPE in % (VERPE): 90%; Post-emergence action at 20 g/ha against AMARE in % (AMARE [20]): 90%; Pre-emergence action against ECHCG in % (ECHCG [21]): 100%; Post-emergence action against SETVI in % (SETVI [15]; dosage 5 g/ha): 80%; Pre-emergence action against SETVI in % (SETVI [22]): 100%
CCNC(=O)c1c(C(F)F)ccc(C(=O)Nc2nnc(C)o2)c1C [Example 6-32] | 80 | 100 | 80 | 80 | 100 | 80 | – | – | – | – | – | 90 | 80 | – | 90 | 80 | – | 80 | 90 | 80 | Post-emergence action at 20 g/ha against AMARE in % (AMARE [20]): 100%; Pre-emergence action against ECHCG in % (ECHCG [21]): 90%; Pre-emergence action against POLCO in % (POLCO): 80%
Cc1nnc(NC(=O)c2ccc(C(F)(F)F)c(C(=O)NC3CC3)c2Cl)o1 [Example 6-118] | 90 | 100 | 100 | 80 | 100 | 100 | 80 | 90 | 90 | 80 | 90 | 100 | – | 90 | 100 | 100 | 100 | 80 | 90 | 100 | Post-emergence action against ECHCG in % (ECHCG [18]; dosage 20 g/ha): 90%; Post-emergence action against ALOMY in % (ALOMY [19]): 80%; Pre-emergence action against AVEFA in % (AVEFA [10]): 90%; Post-emergence action at 20 g/ha against AMARE in % (AMARE [20]): 100%; Pre-emergence action against ECHCG in % (ECHCG [21]): 100%; Pre-emergence action against ALOMY (herbicidal activity) (ALOMY [14]): 100%; Pre-emergence action against POLCO in % (POLCO): 80%; Pre-emergence action against SETVI in % (SETVI [22]): 100%
